Patent US9034792B2, “Antifungal compositions” (DSM IP ASSETS B.V., priority 2011, dated 2015)
Values joined by “and” are separate entries in the source; they are usually repeats but may differ in a detail not shown here. Equal entries are not always repeated.

Assays:
Assay type in all cases: in vivo
Fusarium proliferatum = assay: Treatment of wounded bananas inoculated with Fusarium proliferatum; conditions: 20° C.
Description: Four organic, unripe (green) bananas were used per treatment. The peel of each banana was wounded thrice using a cork borer according to the method described by de Lapeyre de Bellaire and Dubois (1987). Subsequently, each wound was inoculated with 15 μl of a Fusarium proliferatum suspension containing 1×10^5 of spores/ml. […] In addition, the antifungal compositions comprised 1.00% (w/w) methylhydroxyethylcellulose (MHEC), 0.40% (w/w) xanthan gum, 0.20% (w/w) anti-foaming agent, 0.30% (w/w) citric acid, 0.39% (w/w) lactic acid and 0.11% (w/w) potassium sorbate. The pH of the compositions was 4. […] The treated, unripe bananas were incubated in a closed box in the dark at 20° C. and a relative air humidity of 95%, which was obtained in the presence of a saturated Na2HPO4 aqueous solution. During the first 10 days of incubation, a ripe (yellow) banana was included in the closed box to elevate the ethylene gas level and thus induce ripening of the treated, unripe bananas.
(§1) The expected antifungal activity (E in %) of the combined antifungal composition comprising both active ingredients was calculated according to the Colby equation (Colby, 1967): E=X+Y−[(X·Y)/100] wherein X and Y are the observed antifungal activities (in %) of the individual active ingredients X and Y, respectively. If the observed antifungal activity (O in %) of the combination exceeds the expected antifungal activity (E in %) of the combination and the synergy factor O/E is thus >1.0, the combined application of the active ingredients leads to a synergistic antifungal effect.
The degree of mould growth on the banana wounds was assessed according to the two methods described in Example 3.

Penicillium italicum = assay: Treatment of wounded mandarins inoculated with Penicillium italicum; conditions: 20° C., 250 ppm natamycin
Description: Ten fresh, organic mandarins were used per treatment. The peel of each mandarin was wounded once using a cork borer according to the method described by de Lapeyre de Bellaire and Dubois (1987). Subsequently, each wound was inoculated with 10 μl of a Penicillium italicum suspension containing 1×10^4 of spores/ml. […] The pH of the compositions was 4. A composition without natamycin or fluoxastrobin was used as control.
as §1, with “The treated mandarins were incubated in a closed box in the dark at 20° C. and assessed on mould growth after 10, 15, 19, 22 and 27 days of incubation. The antifungal activity (in %) of the individual active ingredients was determined by calculating the reduction in mould growth observed on the mandarins treated with the antifungal composition in comparison to the mould growth on the mandarins treated with the control composition. The” for “The”
A composition without natamycin or trifloxystrobin was used as control. The antifungal activity (in %) of the individual and combined active ingredients on mandarins was assessed after 8, 10 and 19 days of incubation according to the method described in Example 9.

Botrytis cinerea = assay: Treatment of wounded strawberries inoculated with Botrytis cinerea; conditions: 20° C.
Description: Twelve fresh, organic strawberries were used per treatment. Each strawberry was wounded with a 0.5 mm long cut and each wound was inoculated with 10 μl of a Botrytis cinerea suspension containing 1×10^5 of spores/ml. […] The antifungal composition also comprised 1.00% (w/w) methylhydroxyethylcellulose (MHEC), 0.40% (w/w) xanthan gum, 0.20% (w/w) anti-foaming agent, 0.30% (w/w) citric acid, 0.39% (w/w) lactic acid and 0.11% (w/w) potassium sorbate. The pH of the compositions was 4.
as §1, with “The treated strawberries were incubated in a closed box in the dark at 20° C. and assessed on mould growth after 4, 5, 7 and 8 days of incubation. […] The” for “The”, “effect. […]” for “effect.”

[1] = 21 days, 500 ppm natamycin, 1000 ppm fluoxastrobin or both
[2] = 27 days, 250 ppm natamycin, 500 ppm fluoxastrobin or both
[3] = 27 days, 500 ppm natamycin, 1000 ppm fluoxastrobin or both
[4] = 10 days, 500 ppm fluoxastrobin or both
[5] = 15 days, 500 ppm fluoxastrobin or both
[6] = 19 days, 500 ppm fluoxastrobin or both
[7] = 22 days, 500 ppm fluoxastrobin or both
[8] = 27 days, 500 ppm fluoxastrobin or both
[9] = 27 days, 500 ppm natamycin, 1000 ppm trifloxystrobin or both
[10] = 3 days, 50 ppm natamycin, 250 ppm trifloxystrobin or both
[11] = 5 days, 50 ppm natamycin, 250 ppm trifloxystrobin or both
[12] = 5 days, 250 ppm natamycin, 500 ppm trifloxystrobin or both
[13] = 5 days, 500 ppm natamycin, 1000 ppm trifloxystrobin or both
[14] = 7 days, 250 ppm natamycin, 500 ppm trifloxystrobin or both
[15] = 7 days, 500 ppm natamycin, 1000 ppm trifloxystrobin or both
[16] = 8 days, 250 ppm natamycin, 500 ppm trifloxystrobin or both
[17] = 8 days, 500 ppm natamycin, 1000 ppm trifloxystrobin or both
[18] = 9 days, 250 ppm natamycin, 500 ppm trifloxystrobin or both
[19] = 8 days, 400 ppm trifloxystrobin or both
[20] = 10 days, 400 ppm trifloxystrobin or both
[21] = 19 days, 400 ppm trifloxystrobin or both

Molecule: CO/N=C(/C1=NOCCO1)c1ccccc1Oc1ncnc(Oc2ccccc2Cl)c1F [Fluoxastrobin, fluoxastrobin]
- Number of moulded wounds/total number of 12 wounds (Fusarium proliferatum; [1]): 10 and 10/12
- Observed antifungal activity O (%) (Fusarium proliferatum; [1]): 42%
- Observed antifungal activity O (%) (Fusarium proliferatum; [2]): 31%
- Number of moulded wounds/total number of 12 wounds (Fusarium proliferatum; [3]): 12 and 12/12
- Observed antifungal activity O (%) (Fusarium proliferatum; [3]): 7%
- Observed antifungal activity O (%) (Penicillium italicum; [4]): 28%
- Observed antifungal activity O (%) (Penicillium italicum; [5]): 24%
- Observed antifungal activity O (%) (Penicillium italicum; [6]): 6%
- Observed antifungal activity O (%) (Penicillium italicum; [7]): 4%
- Observed antifungal activity O (%) (Penicillium italicum; [8]): 0%

Molecule: CON=C(C(=O)OC)c1ccccc1CON=C(C)c1cccc(C(F)(F)F)c1 [Trifloxystrobin, trifloxystrobin]
- Number of moulded wounds/total number of 12 wounds (Fusarium proliferatum; [9]): 10 and 10/12
- Observed antifungal activity O (%) (Fusarium proliferatum; [9]): 75%
- Observed antifungal activity O (%) (Botrytis cinerea; [10]): 50%
- Observed antifungal activity O (%) (Botrytis cinerea; [11]): 7%
- Number of moulded strawberries/total number of 12 strawberries (Botrytis cinerea; [12]): 12 and 12/12
- Number of moulded strawberries/total number of 12 strawberries (Botrytis cinerea; [13]): 12 and 12/12
- Observed antifungal activity O (%) (Botrytis cinerea; [13]): 0%
- Observed antifungal activity O (%) (Botrytis cinerea; [14]): 0%
- Observed antifungal activity O (%) (Botrytis cinerea; [15]): 6%
- Observed antifungal activity O (%) (Botrytis cinerea; [16]): 0%
- Observed antifungal activity O (%) (Botrytis cinerea; [17]): 6%
- Observed antifungal activity O (%) (Botrytis cinerea; [18]): 0%
- Observed antifungal activity O (%) (Penicillium italicum; [19]): 61%
- Observed antifungal activity O (%) (Penicillium italicum; [20]): 42%
- Observed antifungal activity O (%) (Penicillium italicum; [21]): 0%

Molecule: natamycin
- Number of moulded wounds/total number of 12 wounds (Fusarium proliferatum; [1]): 6 and 6/12
- Observed antifungal activity O (%) (Fusarium proliferatum; [1]): 78%
- Observed antifungal activity O (%) (Fusarium proliferatum; [2]): 4%
- Number of moulded wounds/total number of 12 wounds (Fusarium proliferatum; [3]): 12 and 12/12
- Observed antifungal activity O (%) (Fusarium proliferatum; [3]): 63%
- Number of moulded wounds/total number of 12 wounds (Fusarium proliferatum; [9]): 12 and 12/12
- Observed antifungal activity O (%) (Fusarium proliferatum; [9]): 63%
- Observed antifungal activity O (%) (Botrytis cinerea; [10]): 64%
- Observed antifungal activity O (%) (Botrytis cinerea; [11]): 17%
- Number of moulded strawberries/total number of 12 strawberries (Botrytis cinerea; [12]): 12 and 12/12
- Number of moulded strawberries/total number of 12 strawberries (Botrytis cinerea; [13]): 12 and 12/12
- Observed antifungal activity O (%) (Botrytis cinerea; [13]): 31%
- Observed antifungal activity O (%) (Botrytis cinerea; [14]): 10%
- Observed antifungal activity O (%) (Botrytis cinerea; [15]): 13%
- Observed antifungal activity O (%) (Botrytis cinerea; [16]): 2%
- Observed antifungal activity O (%) (Botrytis cinerea; [17]): 0%
- Observed antifungal activity O (%) (Botrytis cinerea; [18]): 0%
- Observed antifungal activity O (%) (Penicillium italicum; [19]): 83%
- Observed antifungal activity O (%) (Penicillium italicum; [20]): 54%
- Observed antifungal activity O (%) (Penicillium italicum; [4]): 54%
- Observed antifungal activity O (%) (Penicillium italicum; [5]): 19%
- Observed antifungal activity O (%) (Penicillium italicum; [21]): 5%
- Observed antifungal activity O (%) (Penicillium italicum; [6]): 5%
- Observed antifungal activity O (%) (Penicillium italicum; [7]): 5%
- Observed antifungal activity O (%) (Penicillium italicum; [8]): 5%
